From publication PMC6278960 (Haematologica, 2018)

Target: protein disulfide isomerase (PDI) (Homo sapiens, UniProt P07237)
Experiment: turbidimetric insulin disulfide reduction assay with recombinant human PDI
Assay type: biochemical

protein disulfide isomerase (PDI), sequence (P07237 18-508): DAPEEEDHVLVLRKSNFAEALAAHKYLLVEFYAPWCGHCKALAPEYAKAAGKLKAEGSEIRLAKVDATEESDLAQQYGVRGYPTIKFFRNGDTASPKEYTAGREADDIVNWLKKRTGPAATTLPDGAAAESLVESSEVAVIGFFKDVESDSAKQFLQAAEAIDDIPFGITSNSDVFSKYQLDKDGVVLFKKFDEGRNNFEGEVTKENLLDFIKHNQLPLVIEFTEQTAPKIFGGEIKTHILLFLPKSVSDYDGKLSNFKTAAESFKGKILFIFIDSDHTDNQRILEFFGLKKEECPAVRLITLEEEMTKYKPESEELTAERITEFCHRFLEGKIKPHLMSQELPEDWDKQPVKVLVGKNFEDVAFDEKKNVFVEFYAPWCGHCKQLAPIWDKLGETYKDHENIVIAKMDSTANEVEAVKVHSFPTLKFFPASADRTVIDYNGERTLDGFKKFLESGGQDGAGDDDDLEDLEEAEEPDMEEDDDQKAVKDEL

Substance: SK053
- IC50: 9.98 µM
